target: T1, human factor Xa (Homo sapiens, UniProt P00742); assay: Factor Xa chromogenic assay (substrate S-2765); format: biochemical; details: Ki calculated from IC50 corrected for substrate competition; 25° C., 0.5 nM enzyme, 140 μM substrate S-2765; read-out: Ki(FXa), inhibition constant for inhibition of factor Xa
T1 construct: 25 μl human factor Xa (Enzyme Research Laboratories, Inc; South Bend, Ind.); purchased Enzyme Research Laboratories, Inc; South Bend, Ind
Procedure: Purified enzymes are used in chromogenic assays.
The IC50 was determined by combining in appropriate wells of a Costar half-area microtiter plate 25 μl human factor Xa (Enzyme Research Laboratories, Inc.; South Bend, Ind.) in TBS-PEG; 40 μl 10% (v/v) DMSO in TBS-PEG (uninhibited control) or various concentrations of the compound to be tested diluted in 10% (v/v) DMSO in TBS-PEG; and substrate S-2765 (N(α)-benzyloxycarbonyl-D-Arg-Gly-L-Arg-p-nitroanilide; Kabi Pharmacia, Inc.; Franklin, Ohio) in TBS-PEG.
The assay was performed by pre-incubating the compound of formula I plus enzyme for 10 min. Then the assay was initiated by adding substrate to obtain a final volume of 100 μl. The initial velocity of chromogenic substrate hydrolysis was measured by the change in absorbance at 405 nm using a Bio-tek Instruments kinetic plate reader (Ceres UV900HDi) at 25° C. during the linear portion of the time course (usually 1.5 min after addition of substrate). The enzyme concentration was 0.5 nM and substrate concentration was 140 μM.

T1 sequence (P00742 235-488 limits assumed): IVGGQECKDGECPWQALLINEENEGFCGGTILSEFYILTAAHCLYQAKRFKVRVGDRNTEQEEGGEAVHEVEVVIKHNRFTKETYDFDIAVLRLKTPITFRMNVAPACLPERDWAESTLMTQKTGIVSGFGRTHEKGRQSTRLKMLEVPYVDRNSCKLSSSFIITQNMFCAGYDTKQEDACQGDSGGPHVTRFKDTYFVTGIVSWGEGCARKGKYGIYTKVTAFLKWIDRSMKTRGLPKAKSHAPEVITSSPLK
T1 sequence (P00742 41-179 partner limits assumed): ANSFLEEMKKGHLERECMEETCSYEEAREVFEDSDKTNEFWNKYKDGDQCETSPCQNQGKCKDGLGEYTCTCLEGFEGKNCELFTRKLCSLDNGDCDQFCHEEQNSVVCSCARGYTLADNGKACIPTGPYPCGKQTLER

| Ki [nM] | Structure (SMILES) |
| --- | --- |
| 140 | CC(=N)N1CCC(CNC(=O)c2ccc(C)c(OCCc3ccc(Cl)cc3Cl)c2)CC1 [Example 12, 3-[2-(2,4-Dichloro-phenyl)-ethoxy]-N-[1-(10-imino-ethyl)-piperidin-4-ylmethyl]-4-methyl-benzamide; compound with trifluoro-acetic acid] |
| 173 | Cc1ccc(C(=O)NCC2CCN(C(=N)N)CC2)cc1OCCc1ccc(Cl)cc1Cl [Example 13, N-(1-Carbamimidoyl-piperidin-4-ylmethyl)-3-[2-(2,4-dichloro-phenyl)-ethoxy]-4-methyl-benzamide; compound with trifluoro-acetic acid] |

same assay, conditions: read-out: Ki(FXa), inhibition constant for inhibition of factor Xa

| Structure (SMILES) | Ki [nM] |
| --- | --- |
| COC(=O)[C@@H](NC(=O)c1cc(O)cc(OCCc2ccc(Cl)cc2Cl)c1)C1CCN(C(=N)N)CC1 [Example 1, (S)-(1-Carbamimidoyl-piperidin-4-yl)-{3-[2-(2,4-dichloro-phenyl)-ethoxy]-5-hydroxy-benzoylamino}-acetic acid methyl ester] | 2120 |
| N=C(N)N1CCC(CNC(=O)c2cc(O)cc(OCCc3ccc(Cl)cc3Cl)c2)CC1 [Example 4] | 464 |
| COC(=O)[C@H](CC1CCN(C(=N)N)CC1)NC(=O)c1cc(O)c(C)c(OCCCc2ccc(Cl)cc2Cl)c1 [Example 6] | 2280 |

Next, values leading:

| Ki [nM] | Structure (SMILES) |
| --- | --- |
| 13.7 | N=C(N)N1CCC(CNC(=O)c2cc(O)c(Br)c(OCCc3ccc(Cl)cc3Cl)c2)CC1 [Example 2, 4-Bromo-N-(1-carbamimidoyl-piperidin-4-ylmethyl)-3-[2-(2,4-dichloro-phenyl)-ethoxy]-5-hydroxy-benzamide] |
| 58.5 | Cc1c(O)cc(C(=O)NCC2CCN(C(=N)N)CC2)cc1OCCc1ccc(Cl)cc1Cl [Example 3, N-(1-Carbamimidoyl-piperidin-4-ylmethyl)-3-[2-(2,4-dichloro-phenyl)-ethoxy]-5-hydroxy-4-methyl-benzamide] |
